From US20060019964A1, “Compounds” (priority 2002, published 2006)

Columns and labels:
[1] = Rat pharmacokinetics; format: in vivo, male CD Sprague Dawley rats
Method: Compounds were dosed to male CD Sprague Dawley rats by single intravenous or oral administration at a nominal dose level of 1 mg/kg and 3 mg/kg respectively. Compounds were formulated in 5% DMSO,45% PEG200,50% water. An intravenous profile was obtained by taking serial or terminal blood samples at 0.083, 0.25, 0.5, 1, 2, 4, and 7 hours post dose. An oral profile was obtained by taking serial or terminal blood samples at 0.25, 0.5, 1, 2, 4, 7 and 12 hours post dose. Blood samples were taken directly into heparinised tubes. Blood samples were prepared by protein precipitation and subjected to quantitative analysis by LC-MS/MS using compound-specific mass transitions. Drug concentration-time profiles were generated and non-compartmental PK analysis used to generate estimates of half-life, clearance, volume of distribution and oral bioavailability.

[2] = CNS penetration; format: in vivo, male CD Sprague Dawley rats; conditions: male, CD Sprague Dawley, brain; rat, 1 mg/kg intravenous, 5 minutes post-dose; described as low CNS penetration; read-out: CNS penetration (compound in brain tissue)
Method: Compounds were dosed intravenously at a nominal dose level of 1 mg/kg to male CD Sprague Dawley rats. Compounds were formulated in 5% DMSO/45% PEG200/50% water. Blood samples were taken under terminal anaesthesia with isoflurane at 5 minutes post-dose and the brains were also removed for assessment of brain penetration. Blood samples were taken directly into heparinised tubes. Blood samples were prepared for analysis using protein precipitation and brain samples were prepared using extraction of drug from brain by homogenisation and subsequent protein precipitation. The concentration of parent drug in blood and brain extracts was determined by quantitative LC-MS/MS analysis using compound-specific mass transitions.

[3] = target: T1, histamine H3 receptor (Homo sapiens, UniProt Q9Y5N1); experiment: Histamine H3 functional antagonist assay ([35S]-GTPγS, CHO cell membranes); format: biochemical; conditions: functional antagonism vs histamine EC80, GTPγS; read-out: average pki (pKb) at H3 (converted)
T1 construct: expressed in transfected cells; host or cells: CHO K1 cells carrying pSwitch, transfected with pGeneH3, induced with mifepristone; clone 3H3; membrane preparation
T1 sequence (Q9Y5N1 whole entry, species assumed): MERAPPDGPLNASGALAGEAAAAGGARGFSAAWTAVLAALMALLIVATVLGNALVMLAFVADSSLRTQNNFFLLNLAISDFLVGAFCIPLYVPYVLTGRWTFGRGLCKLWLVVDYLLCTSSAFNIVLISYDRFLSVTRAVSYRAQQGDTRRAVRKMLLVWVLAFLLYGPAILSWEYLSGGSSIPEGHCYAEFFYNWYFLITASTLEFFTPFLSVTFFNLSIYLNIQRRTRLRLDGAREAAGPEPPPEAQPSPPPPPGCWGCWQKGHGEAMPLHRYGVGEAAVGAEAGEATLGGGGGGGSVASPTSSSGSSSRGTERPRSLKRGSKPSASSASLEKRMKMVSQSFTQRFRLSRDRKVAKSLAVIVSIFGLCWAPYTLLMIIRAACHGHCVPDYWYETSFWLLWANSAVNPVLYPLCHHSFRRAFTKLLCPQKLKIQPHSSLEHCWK
Description: 2. H3 Receptor Cell Line Generation, Membrane Preparation and Functional GTPγS Assay Protocols
Generation of Histamine H3 Cell Line
The histamine H3 cDNA was isolated from its holding vector, pcDNA3.1 TOPO (InVitrogen), by restriction digestion of plasmid DNA with the enzymes BamH1 and Not-1 and ligated into the inducible expression vector pGene (InVitrogen) digested with the same enzymes. The GeneSwitch™ system (a system where in transgene expression is switched off in the absence of an inducer and switched on in the presence of an inducer) was performed as described in U.S. Pat. Nos. 5,364,791; 5,874,534; and 5,935,934. […]
10-14 days post selection 10 nM Mifepristone (InVitrogen), was added to the culture medium to induce the expression of the receptor. […] Receptor bound antibody was detected by incubation of the cells for 60 minutes on ice with a goat anti rabbit antibody, conjugated with Alexa 488 fluorescence marker (Molecular Probes). Following two further washes with Sorting Medium, cells were filtered through a 50 μm Filcon™ (BD Biosciences) and then analysed on a FACS Vantage SE Flow Cytometer fitted with an Automatic Cell Deposition Unit. […]

[4] = target: T2, human H1 receptor (Homo sapiens, UniProt P35367); experiment: Histamine H1 functional antagonist assay (FLIPR); format: cell-based; conditions: functional antagonism vs histamine EC80, FLIPR, CHO cells; read-out: average pki (pKb) at H1 (converted)
T2 construct: expressed in transfected cells
T2 sequence (P35367 whole entry): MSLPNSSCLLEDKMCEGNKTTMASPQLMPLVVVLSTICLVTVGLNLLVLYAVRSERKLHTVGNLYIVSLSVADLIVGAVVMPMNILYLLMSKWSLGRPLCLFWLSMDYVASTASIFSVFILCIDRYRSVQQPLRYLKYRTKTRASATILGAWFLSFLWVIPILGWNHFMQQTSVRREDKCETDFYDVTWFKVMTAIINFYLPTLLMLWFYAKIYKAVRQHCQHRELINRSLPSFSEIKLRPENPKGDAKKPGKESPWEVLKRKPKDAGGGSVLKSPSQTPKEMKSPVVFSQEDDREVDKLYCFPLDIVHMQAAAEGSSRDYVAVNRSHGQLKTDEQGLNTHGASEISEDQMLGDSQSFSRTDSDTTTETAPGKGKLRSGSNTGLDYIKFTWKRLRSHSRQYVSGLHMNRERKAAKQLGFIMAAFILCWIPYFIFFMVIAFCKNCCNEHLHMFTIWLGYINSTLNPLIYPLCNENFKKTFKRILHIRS
Method: H1 Receptor Cell Line Generation and FLIPR Assay Protocol
1. Generation of Histamine H1 Cell Line
The human H1 receptor was cloned using known procedures described in the literature [Biochem. Biophys. Res. Commun. 1994, 201(2), 894]. Chinese hamster ovary cells stably expressing the human H1 receptor were generated according to known procedures described in the literature [Br. J. Pharmacol. 1996, 117(6), 1071].
Histamine H1 Functional Antagonist Assay […]
10 μl of test compound, diluted to the required concentration in Tyrodes buffer+probenecid (or 10 μl Tyrodes buffer+probenecid as a control) was added to each well and the plate incubated for 30 min at 37° C., 5% CO2. The plates were then placed into a FLIPR™ (Molecular Devioes, UK) to monitor cell fluorescence (λex=488 nm, λEM=540 nm) in the manner described in Sullivan et al. (In: Lambert DG (ed.), Calcium Signaling Protocols, New Jersey: Humana Press, 1999, 125-136) before and after the addition of 10 μl histamine at a concentration that results in the final assay concentration of histamine being EC80.
Functional antagonism is indicated by a suppression of histamine induced increase in fluorescence, as measured by the FLIPR™ system (Molecular Devices). By means of concentration effect curves, functional affinities are determined using standard pharmacological mathematical analysis.

[5] = Dog pharmacokinetics; format: in vivo, male Beagle dogs
Method: Compounds were dosed to male Beagle dogs by single intravenous or oral administration at a nominal dose level of 1 mg/kg and 2 mg/kg respectively. The study was carried out according to a crossover design such that the same dog was used for both dosing events and the dosing events occurred 1 week apart. Compounds were formulated in 5% DMSO,45% Peg200,50% water. An intravenous profile was obtained by taking serial blood samples at 0.083, 0.25, 0.5, 0.75, 1, 2, 4, 6 & 12 hr post dose. An oral profile was obtained by taking serial blood samples at 0.25, 0.5, 0.75, 1, 2, 4, 6, 12 & 24 hr post dose. Blood samples were taken directly into heparinised tubes. Blood samples were prepared by protein precipitation and subjected to quantitative analysis by LC-MS/MS using compound-specific mass transitions. Drug concentration-time profiles were generated and non-compartmental PK analysis used to generate estimates of half-life, clearance, volume of distribution and oral bioavailability.

For `CS(=O)(=O)c1ccc(C(=O)N2CCN(c3ccc(OC4CCN(C5CCC5)CC4)cc3)CC2)cc1` [compound of formula (I), 1-{4-[(1-Cyclobutyl-4-piperidinyl)oxy]phenyl}4-{[4-(methylsulfonyl)phenyl]carbonyl}piperazine], the clearance ([1]; male, CD Sprague Dawley, whole blood, 1 mg/kg intravenous) was roughly 29 mL/min/kg, the half-life ([1]; male, CD Sprague Dawley, whole blood, IV route, 1 mg/kg) was roughly 2 h and the “oral bioavailability in the rat” value ([1]; oral 3 mg/kg vs intravenous 1 mg/kg) was “greater than 50 %F”. It also gave a concentration at 5 min [2] of less than 100 ng/g, a Ki [3] of roughly 0.000251 µM and a Ki [4] of roughly 2.51 µM. The clearance ([5]; male, Beagle, whole blood, 1 mg/kg intravenous) was roughly 10 mL/min/kg, the half-life ([5]; male, Beagle, whole blood, IV route, 1 mg/kg) was roughly 5 h and the “oral bioavailability in the dog” value ([5]; oral 2 mg/kg vs intravenous 1 mg/kg) was “about 99 % F”.
